Values after ≈ are worked out from the molar mass of the structure shown.

The values below come from ChEMBL document CHEMBL4184100, “Discovery of 2-arylquinazoline derivatives as a new class of ASK1 inhibitors” (Bioorg Med Chem Lett, 2018).

Series [1] concerns the target T1, Mitogen-activated protein kinase kinase kinase 5 (Homo sapiens, UniProt Q99683).
T1 sequence (Q99683 whole entry): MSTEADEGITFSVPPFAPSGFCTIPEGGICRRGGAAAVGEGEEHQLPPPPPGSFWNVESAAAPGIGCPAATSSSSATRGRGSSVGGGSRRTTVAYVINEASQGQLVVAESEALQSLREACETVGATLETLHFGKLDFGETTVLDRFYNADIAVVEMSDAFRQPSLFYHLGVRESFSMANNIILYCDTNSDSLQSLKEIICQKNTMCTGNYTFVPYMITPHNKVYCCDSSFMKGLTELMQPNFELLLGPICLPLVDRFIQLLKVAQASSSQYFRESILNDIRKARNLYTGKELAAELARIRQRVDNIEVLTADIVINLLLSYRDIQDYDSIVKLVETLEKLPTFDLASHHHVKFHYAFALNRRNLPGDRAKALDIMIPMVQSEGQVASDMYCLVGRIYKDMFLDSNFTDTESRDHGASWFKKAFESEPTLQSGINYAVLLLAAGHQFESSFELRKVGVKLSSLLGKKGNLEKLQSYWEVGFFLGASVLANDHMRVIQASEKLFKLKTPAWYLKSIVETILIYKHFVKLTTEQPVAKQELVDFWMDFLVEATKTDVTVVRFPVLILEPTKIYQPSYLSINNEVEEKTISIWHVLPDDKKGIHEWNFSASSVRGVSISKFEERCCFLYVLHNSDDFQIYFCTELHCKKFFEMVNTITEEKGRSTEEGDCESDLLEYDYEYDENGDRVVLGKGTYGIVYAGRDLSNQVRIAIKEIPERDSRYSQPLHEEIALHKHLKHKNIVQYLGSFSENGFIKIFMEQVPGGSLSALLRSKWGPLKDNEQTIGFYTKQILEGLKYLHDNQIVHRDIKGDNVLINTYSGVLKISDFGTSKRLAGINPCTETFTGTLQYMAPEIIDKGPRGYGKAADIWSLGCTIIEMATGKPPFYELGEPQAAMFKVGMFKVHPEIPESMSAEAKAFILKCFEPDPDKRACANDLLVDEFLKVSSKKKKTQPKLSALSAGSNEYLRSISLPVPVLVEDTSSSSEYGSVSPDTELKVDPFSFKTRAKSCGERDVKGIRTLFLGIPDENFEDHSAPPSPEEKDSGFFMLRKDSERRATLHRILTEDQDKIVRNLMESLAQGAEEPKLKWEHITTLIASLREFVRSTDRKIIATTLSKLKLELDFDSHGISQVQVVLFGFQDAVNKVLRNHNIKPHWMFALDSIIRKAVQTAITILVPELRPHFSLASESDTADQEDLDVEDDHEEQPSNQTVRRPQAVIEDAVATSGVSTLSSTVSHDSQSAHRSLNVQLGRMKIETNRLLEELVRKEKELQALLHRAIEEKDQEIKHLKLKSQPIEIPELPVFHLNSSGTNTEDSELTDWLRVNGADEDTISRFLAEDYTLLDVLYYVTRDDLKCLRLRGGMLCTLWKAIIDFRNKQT
Kind of series: Inhibition of stress-activated full length recombinant human N-terminal GST-tagged ASK1 expressed in baculovirus expression system using MKK6 as substrate pretreated for 10 mins followed by substrate addition by Alphascreen assay. Background: Alpha assays give light when donor and acceptor beads are brought close together.

Series [2] can be described thus: Solubility of the compound in phosphate buffered saline at pH 7.4. The note with it: buffer. It is filed as physicochemical.
A short description of series [3]: Stability in human liver microsomes. The note with it: read-out: Stability. It is filed as ADME, microsome. (Liver microsomes are a subcellular fraction often used to study metabolism.)
The nature of series [4]: Stability in mouse liver microsomes. Format: ADME, microsome. The settings on record: read-out: Stability.
Series [5] is described as follows: Stability in rat liver microsomes. Format: ADME, microsome. The settings on record: read-out: Stability.
For another series, the target named is T2, CYP1A2 (Homo sapiens, UniProt P05177).
T2 sequence (P05177 whole entry): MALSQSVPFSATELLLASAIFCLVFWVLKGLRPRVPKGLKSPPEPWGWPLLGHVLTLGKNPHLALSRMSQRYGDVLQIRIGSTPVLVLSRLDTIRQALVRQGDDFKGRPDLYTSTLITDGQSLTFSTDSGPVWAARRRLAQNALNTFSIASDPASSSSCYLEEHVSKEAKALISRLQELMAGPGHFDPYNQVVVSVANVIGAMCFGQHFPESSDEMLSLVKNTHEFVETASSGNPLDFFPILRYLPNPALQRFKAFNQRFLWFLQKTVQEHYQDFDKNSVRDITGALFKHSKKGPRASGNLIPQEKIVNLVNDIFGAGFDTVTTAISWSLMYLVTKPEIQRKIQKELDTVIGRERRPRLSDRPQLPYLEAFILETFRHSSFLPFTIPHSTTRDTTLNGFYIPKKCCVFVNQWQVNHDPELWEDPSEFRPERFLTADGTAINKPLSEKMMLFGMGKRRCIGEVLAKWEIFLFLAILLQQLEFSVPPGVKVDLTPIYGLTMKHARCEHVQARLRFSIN
Put plainly: Inhibition of CYP1A2 (unknown origin) at 10 uM relative to control. It is filed as ADME.

For the next series, the target named is CYP2C9 (Homo sapiens, UniProt P11712). Kind of series: Inhibition of CYP2C9 (unknown origin) at 10 uM relative to control. Format: ADME.
Chain of CYP2C9 (P11712 whole entry): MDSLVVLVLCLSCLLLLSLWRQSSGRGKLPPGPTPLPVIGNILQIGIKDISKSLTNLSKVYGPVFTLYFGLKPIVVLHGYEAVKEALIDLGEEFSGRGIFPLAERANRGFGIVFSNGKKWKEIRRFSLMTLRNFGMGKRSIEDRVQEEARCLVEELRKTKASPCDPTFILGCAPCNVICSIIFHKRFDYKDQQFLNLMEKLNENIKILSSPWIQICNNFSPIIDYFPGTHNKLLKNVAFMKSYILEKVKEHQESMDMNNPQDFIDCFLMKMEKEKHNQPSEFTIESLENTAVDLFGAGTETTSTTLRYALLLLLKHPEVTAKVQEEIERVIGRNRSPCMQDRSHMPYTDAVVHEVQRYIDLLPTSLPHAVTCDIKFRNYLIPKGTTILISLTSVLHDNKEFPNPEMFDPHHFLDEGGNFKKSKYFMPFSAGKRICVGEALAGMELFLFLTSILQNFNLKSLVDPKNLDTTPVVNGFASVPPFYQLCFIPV
For a further series, the target named is CYP2D6 (Homo sapiens, UniProt P10635). Kind of series: Inhibition of CYP2D6 (unknown origin) at 10 uM relative to control. Format: ADME.
Chain of CYP2D6 (P10635 whole entry): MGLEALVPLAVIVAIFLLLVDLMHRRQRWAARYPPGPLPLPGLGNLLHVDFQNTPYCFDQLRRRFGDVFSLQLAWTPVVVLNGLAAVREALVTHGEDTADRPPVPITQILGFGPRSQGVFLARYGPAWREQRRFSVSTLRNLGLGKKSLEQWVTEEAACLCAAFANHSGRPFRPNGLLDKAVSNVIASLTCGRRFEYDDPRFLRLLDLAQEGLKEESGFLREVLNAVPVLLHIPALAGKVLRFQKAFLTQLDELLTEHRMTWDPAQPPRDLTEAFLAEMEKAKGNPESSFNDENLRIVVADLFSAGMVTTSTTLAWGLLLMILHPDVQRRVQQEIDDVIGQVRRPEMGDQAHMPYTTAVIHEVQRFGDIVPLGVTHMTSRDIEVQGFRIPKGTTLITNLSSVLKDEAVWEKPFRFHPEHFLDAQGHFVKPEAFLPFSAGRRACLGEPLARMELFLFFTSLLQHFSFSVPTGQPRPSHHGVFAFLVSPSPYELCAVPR
The target of another series is CYP3A4 (Homo sapiens, UniProt P08684). Kind of series: Inhibition of CYP3A4 (unknown origin) at 10 uM relative to control. Format: ADME.
Chain of CYP3A4 (P08684 whole entry): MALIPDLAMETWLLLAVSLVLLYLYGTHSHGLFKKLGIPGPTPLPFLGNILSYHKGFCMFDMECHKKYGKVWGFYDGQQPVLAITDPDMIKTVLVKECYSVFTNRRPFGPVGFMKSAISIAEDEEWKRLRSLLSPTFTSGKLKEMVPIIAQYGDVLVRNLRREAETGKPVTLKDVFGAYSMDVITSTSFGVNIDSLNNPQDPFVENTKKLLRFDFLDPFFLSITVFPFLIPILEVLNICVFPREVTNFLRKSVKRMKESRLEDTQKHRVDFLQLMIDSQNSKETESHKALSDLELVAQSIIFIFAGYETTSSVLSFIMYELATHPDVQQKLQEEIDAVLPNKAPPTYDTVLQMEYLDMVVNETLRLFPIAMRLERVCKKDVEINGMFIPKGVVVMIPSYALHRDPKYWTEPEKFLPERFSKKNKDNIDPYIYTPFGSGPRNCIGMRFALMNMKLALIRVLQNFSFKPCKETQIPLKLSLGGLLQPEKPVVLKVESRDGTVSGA
Compound in series [6]: CC(=O)Nc1cccc(Nc2ncc3ccccc3n2)c1
Put plainly: ATP-competitive inhibition of full length recombinant human N-terminal GST-tagged ASK1 expressed in baculovirus expression system assessed as Km for substrate at 2 uM using MKK6 as substrate by Lineweaver-burk plot analysis (reference value: 6.08 +/- 0.4093 10^-6 M).

Compound in series [7]: CC(=O)Nc1cccc(Nc2ncc3ccccc3n2)c1
Kind of series: ATP-competitive inhibition of full length recombinant human N-terminal GST-tagged ASK1 expressed in baculovirus expression system assessed as Km for substrate at 1 uM using MKK6 as substrate by Lineweaver-burk plot analysis (reference value: 6.08 +/- 0.4093 10^-6 M).

Compound in series [8]: CC(=O)Nc1cccc(Nc2ncc3ccccc3n2)c1
Kind of series: ATP-competitive inhibition of full length recombinant human N-terminal GST-tagged ASK1 expressed in baculovirus expression system assessed as Km for substrate at 0.5 uM using MKK6 as substrate by Lineweaver-burk plot analysis (reference value: 6.08 +/- 0.4093 10^-6 M).

For orientation: IC50 means the concentration at which inhibition is half-maximal. As to `CN(C)c1cccc(Nc2nccc(NCCOc3ccccc3)n2)c1`, the IC50 in series [1] was 2 µM.
For `c1ccc(Nc2ncnc3nc[nH]c23)cc1`, the IC50 in series [1] was above 10 µM.
`Nc1cccc(Nc2ncc3cc(Br)ccc3n2)c1`: in series [1], the IC50 is above 10 µM.
Still for that read-out and setting: for `c1ccc(Nc2ncc3ccccc3n2)cc1` the value was above 10 µM.
On the same count and under the same terms, the result for `CC(=O)Nc1cccc(Nc2ncc3cc(Br)ccc3n2)c1` reads above 10 µM.
On the same count and under the same terms, the result for `CN(C)c1cccc(Nc2ncnc3[nH]cnc23)c1` reads above 10 µM; that for `Cn1cc(-c2ccc3nc(Nc4cccc(N)c4)ncc3c2)cn1`, above 10 µM; that for `c1ccc(Nc2ncc3cc(-c4cn[nH]c4)ccc3n2)cc1`, above 10 µM.
Take `Nc1cccc(Nc2ncc3cc(-c4cccc(N)c4)ccc3n2)c1`: the IC50 in [1] was above 10 µM.
Regarding `Nc1cccc(Nc2ncc3ccccc3n2)c1`, the IC50 in series [1] was above 10 µM.
On the same count and under the same terms, for `Cn1cc(-c2ccc3nc(Nc4ccccc4)ncc3c2)cn1` the value was above 10 µM; for `CC(C)(C)C(=O)N(c1ccccc1)c1cccc(Nc2ncc3cc(Br)ccc3n2)c1`, above 10 µM; for `Cn1cc(-c2ccc3nc(Nc4cccc(N(C(=O)C(C)(C)C)c5ccccc5)c4)ncc3c2)cn1`, above 10 µM.
`Clc1cccc(Nc2ncnc3[nH]cnc23)c1`: the IC50 in [1] is above 10 µM.
On the same count and under the same terms, for `Clc1cccc(Nc2ncc3ccccc3n2)c1` the value was above 10 µM.
Take `Fc1ccc(Nc2ncc3ccccc3n2)cc1`: the IC50 in series [1] is above 10 µM.
As for `CC(=O)Nc1cccc(Nc2ncc3cc(-c4cccc(N)c4)ccc3n2)c1`, the IC50 in [1] was above 10 µM.
Still for that read-out and setting: the result for `CC(=O)Nc1cccc(Nc2ncc3cc(-c4cnn(C)c4)ccc3n2)c1` reads above 10 µM; that for `Fc1ccc(Nc2ncc3cc(Br)ccc3n2)cc1`, above 10 µM.
What is called solubility is how much of the substance goes into solution per volume. Read a low solubility as little dissolved substance. A word on the inhibition: it is the percentage by which the read-out fell short of the control. Consider `CC(=O)Nc1cccc(Nc2ncc3cc(-c4cn[nH]c4)ccc3n2)c1`, for which the IC50 in series [1] is 0.2 µM. Also, the solubility in series [2] amounted to 10 µM (≈ 3.44 µg/mL). Also, the half-life in series [3] is 42 min; in series [4] it was 2 min; in series [5], 4 min. Besides, the inhibition at 10 µM against CYP1A2 turned out to be 49%; on CYP2C9 it was 98%; at CYP2D6 it was 52%; at CYP3A4, 88%.
Regarding `Brc1ccc2nc(Nc3ccccc3)ncc2c1`, the IC50 in series [1] was above 10 µM.
Regarding `Nc1cccc(-c2ccc3nc(Nc4ccccc4)ncc3c2)c1`, in [1], the half-maximal inhibitory concentration (IC50) is above 10 µM.
For the molecule `Nc1cccc(Nc2ncc3cc(-c4cn[nH]c4)ccc3n2)c1`, the IC50 in [1] came to 0.6 µM. Further, the solubility in series [2] amounted to 17 µM (≈ 5.14 µg/mL). In addition, the values for the half-life in [3], in [4] and in series [5] were 29 min, 2 min and 3 min, respectively. For the same molecule, the inhibition at 10 µM against CYP1A2 stood at 67%; at CYP2C9, 93%; against CYP2D6, 56%; against CYP3A4 it was 52%.
As for `CC(C)(C)C(=O)N(c1ccccc1)c1cccc(Nc2ncc3cc(-c4cn[nH]c4)ccc3n2)c1`, in series [1], the IC50 was above 10 µM.
As for `Fc1ccc(Nc2ncnc3[nH]cnc23)cc1`, the IC50 in series [1] is above 10 µM.
Still for that read-out and setting: the result for `CC(=O)Nc1cccc(Nc2ncnc3[nH]cnc23)c1` reads above 10 µM.

B1: Mitogen-activated protein kinase kinase kinase 5 (Homo sapiens), Q99683 (protein)
chain: MSTEADEGITFSVPPFAPSGFCTIPEGGICRRGGAAAVGEGEEHQLPPPPPGSFWNVESAAAPGIGCPAATSSSSATRGRGSSVGGGSRRTTVAYVINEASQGQLVVAESEALQSLREACETVGATLETLHFGKLDFGETTVLDRFYNADIAVVEMSDAFRQPSLFYHLGVRESFSMANNIILYCDTNSDSLQSLKEIICQKNTMCTGNYTFVPYMITPHNKVYCCDSSFMKGLTELMQPNFELLLGPICLPLVDRFIQLLKVAQASSSQYFRESILNDIRKARNLYTGKELAAELARIRQRVDNIEVLTADIVINLLLSYRDIQDYDSIVKLVETLEKLPTFDLASHHHVKFHYAFALNRRNLPGDRAKALDIMIPMVQSEGQVASDMYCLVGRIYKDMFLDSNFTDTESRDHGASWFKKAFESEPTLQSGINYAVLLLAAGHQFESSFELRKVGVKLSSLLGKKGNLEKLQSYWEVGFFLGASVLANDHMRVIQASEKLFKLKTPAWYLKSIVETILIYKHFVKLTTEQPVAKQELVDFWMDFLVEATKTDVTVVRFPVLILEPTKIYQPSYLSINNEVEEKTISIWHVLPDDKKGIHEWNFSASSVRGVSISKFEERCCFLYVLHNSDDFQIYFCTELHCKKFFEMVNTITEEKGRSTEEGDCESDLLEYDYEYDENGDRVVLGKGTYGIVYAGRDLSNQVRIAIKEIPERDSRYSQPLHEEIALHKHLKHKNIVQYLGSFSENGFIKIFMEQVPGGSLSALLRSKWGPLKDNEQTIGFYTKQILEGLKYLHDNQIVHRDIKGDNVLINTYSGVLKISDFGTSKRLAGINPCTETFTGTLQYMAPEIIDKGPRGYGKAADIWSLGCTIIEMATGKPPFYELGEPQAAMFKVGMFKVHPEIPESMSAEAKAFILKCFEPDPDKRACANDLLVDEFLKVSSKKKKTQPKLSALSAGSNEYLRSISLPVPVLVEDTSSSSEYGSVSPDTELKVDPFSFKTRAKSCGERDVKGIRTLFLGIPDENFEDHSAPPSPEEKDSGFFMLRKDSERRATLHRILTEDQDKIVRNLMESLAQGAEEPKLKWEHITTLIASLREFVRSTDRKIIATTLSKLKLELDFDSHGISQVQVVLFGFQDAVNKVLRNHNIKPHWMFALDSIIRKAVQTAITILVPELRPHFSLASESDTADQEDLDVEDDHEEQPSNQTVRRPQAVIEDAVATSGVSTLSSTVSHDSQSAHRSLNVQLGRMKIETNRLLEELVRKEKELQALLHRAIEEKDQEIKHLKLKSQPIEIPELPVFHLNSSGTNTEDSELTDWLRVNGADEDTISRFLAEDYTLLDVLYYVTRDDLKCLRLRGGMLCTLWKAIIDFRNKQT
Broadly, the Km is the substrate concentration at which the rate is half of its maximum. For the molecule B1, the Michaelis constant (Km) in series [6] came to 9.3 µM; in [7], 7.79 µM; in series [8] it was 7.01 µM.
